Measurements from PubChem BioAssay (NCI).
Values joined by “and” are separate entries in the source; they are usually repeats but may differ in a detail not shown here. Equal entries are not always repeated.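 Step 1: Grow cells in 96-well plates. Step 2: Expose to compound for 48 hours at 5 concentrations. Step 3: Interpolate endpoints linearly; if unreached, use highest concentration. Here, GI50 denotes the concentration required for 50% inhibition of growth. TGI denotes the concentration required for complete inhibition of growth.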

Experiments:
Test in all cases: NCI anticancer screen, dose series, 48 h
[1] = system: HL-60(TB) leukemia
[2] = system: SK-MEL-28 melanoma
[3] = system: CAKI-1 renal
[4] = system: HCT-116 colon
[5] = system: HCC-2998 colon
[6] = system: SF-539 CNS
[7] = system: COLO 205 colon
[8] = system: HOP-62 NSCLC
[9] = system: SF-295 CNS
[10] = system: M14 melanoma

SMILES	TGI [1] [µM]	TGI [2]	TGI [3]	TGI [4]	TGI [5]	TGI [6]	TGI [7]	TGI [8]	TGI [9]	TGI [10]	GI50 [1]	GI50 [2]	GI50 [3]	GI50 [4]	GI50 [5]	GI50 [6]	GI50 [7]	GI50 [8]	GI50 [9]	GI50 [10]
C=C1C(=O)OC2CC1C(OC(C)=O)C/C(C)=C/CC/C(C)=C\CCC2(C)O (configuration not stated)	2.64	11.2 µM and 15.7 µM	14.2 µM and 9.91 µM	12.2 µM and 7.66 µM	17.5 µM and 21.1 µM	18.4 µM and 12.7 µM	14.4 µM and > 100 µM	35.4 µM and 31.7 µM	46.8 µM and 37 µM	> 36.9 µM and 29.6 µM	–	–	–	–	–	–	–	–	–	–
COc1cc2c3c(n(CCCN4CCCNCC4)c(=O)c2cc1OC)-c1cc2c(cc1C3=O)OCO2	0.976	14.1 µM	1.65 µM	2.3 µM	9.45 µM	1.37 µM	10.8 µM	4.46 µM	2.66 µM	7.12 µM	0.147 µM	2.49 µM	0.12 µM	0.282 µM	3.07 µM	0.29 µM	2.21 µM	0.558 µM	0.2 µM	0.521 µM
COc1ccc2[nH]c3c4c(cc(-c5ccccc5)c3c2c1)C(=O)N(c1ccccc1)C4=O	> 100	> 100 µM	> 77.7 µM	> 100 µM	> 100 µM	16.5 µM	> 100 µM	> 71.3 µM	33.7 µM	> 95.4 µM	–	–	–	–	–	–	–	–	–	–
C/C(=N\O)c1cccc(Nc2cc(-c3ccccc3)nc3c(O)cccc23)c1	> 66.3	27.8 µM	> 37.3 µM	15.9 µM	14.2 µM	9.85 µM	26.7 µM	15 µM	–	18.8 µM	4.71 µM	10.9 µM	2.78 µM	2.41 µM	3.68 µM	2.2 µM	10.6 µM	3.09 µM	0.671 µM	3.47 µM
O=C(/C=C/c1cccc(S(=O)(=O)Nc2ccccc2)c1)NO	29.8	10.3 µM and 51.8 µM	2.48 µM and 1.86 µM	1.18 µM	2.48 µM and 1.91 µM	20.9 µM and 23.9 µM	–	13.1 µM and 5.34 µM	3.12 µM and 3.97 µM	12.9 µM and 12.5 µM	–	1 µM and 1.55 µM	0.401 µM and 0.462 µM	0.206 µM and 0.0391 µM	0.519 µM and 0.258 µM	0.696 µM and 0.13 µM	0.353 µM and 0.118 µM	0.529 µM and 0.325 µM	0.579 µM and 0.603 µM	0.451 µM and 0.441 µM
C=C(CN1CCN(c2ccccc2C(F)(F)F)CC1)c1ccc(C(=O)Nc2ccccc2N)cc1	0.756	> 100 µM	> 51.4 µM	16.3 µM	13.9 µM	41.7 µM	45.9 µM	> 44.4 µM	42.9 µM	> 100 µM	0.037 µM	10.4 µM	7.97 µM	3.09 µM	3.83 µM	3.27 µM	11.5 µM	4.76 µM	5.98 µM	4.47 µM
O=C(O)c1ccc(C(=O)O)c(C(=O)O)c1.[NH-]C1CCCCC1[NH-].[Pt+2]	18.8	48.1 µM	32.7 µM	47.3 µM	48.7 µM	43.5 µM	40.7 µM	> 74.4 µM	68.6 µM	37.4 µM	0.735 µM and 4.08 µM	4.97 µM	1.86 µM	1.07 µM	13.4 µM	4.29 µM	3.73 µM	11.7 µM	5.52 µM	9.61 µM
CC(=O)OCC1OC([Se-])C(OC(C)=O)C(OC(C)=O)C1OC(C)=O.N#CCC[PH+](CCC#N)CCC#N.[Au+] (configuration not stated)	4.31	60.5 µM	55.6 µM	> 50.2 µM	43.4 µM	41.2 µM	> 100 µM	68.8 µM	35.9 µM	18.3 µM	1.87 µM	9.01 µM	16.2 µM	3.85 µM	12.5 µM	15.3 µM	17.6 µM	25.2 µM	13.7 µM	3.63 µM
NCCCNc1nc2ccc(Cl)cc2c2c(=O)c3cc(F)ccc3sc12	10.7	24.2 µM	20.2 µM	3.12 µM	4.38 µM	14.3 µM	8.91 µM	28.5 µM	26.5 µM	14.2 µM	3.13 µM	10.1 µM	6.39 µM	1.72 µM	1.89 µM	3.79 µM	2.71 µM	6.47 µM	12 µM	3.6 µM
CCCCN(CCCC)CC(C(=O)Nc1ccc([N+](=O)[O-])cc1[N+](=O)[O-])/C(C)=N\NC(=O)C[N+](C)(C)C (configuration not stated)	> 100	> 100 µM	> 100 µM	> 100 µM	> 100 µM	> 100 µM	> 100 µM	> 100 µM	> 100 µM	> 100 µM	–	–	–	–	–	–	–	–	–	–
OCCCc1cnco1	> 100	> 100 µM	> 100 µM	> 100 µM	> 100 µM	> 100 µM	> 100 µM	> 100 µM	> 100 µM	> 100 µM	–	–	–	–	–	–	–	–	–	–
